As a reminder, the Papp A→B is how fast a substance crosses the layer from the apical side. By bioavailability is commonly meant the share of a dose that reaches the circulation, judged against a reference dose that is usually intravenous. A word on the half-life: it is how long it takes for the measured level to halve. Low readings indicate fast loss, high ones slow loss. In general, Papp B→A refers to how fast a substance crosses the layer from the basolateral side.

The values below come from ChEMBL document CHEMBL1926590, “Discovery of a novel class of non-ATP site DFG-out state p38 inhibitors utilizing computationally assisted virtual fragment-based drug design (vFBDD)” (Bioorg Med Chem Lett, 2011).

A short description of series [1]: Apparent permeability across apical to basolateral side in human Caco2 cells by UPLC analysis. The format is ADME, cell-based. Particulars: Caco-2.
Series [2] in a line: Oral bioavailability in Sprague-Dawley rat at 4 mg/kg. Particulars: in vivo. The format is ADME, organism-based.
Series [3] is described as follows: Half life in human hepatocytes. The format is ADME, cell-based, Liver, Hepatocyte.
A short description of series [4]: Apparent permeability across basolateral to apical side in human Caco2 cells by UPLC analysis. Particulars: Caco-2. Format: ADME, cell-based.

For `CN(C)CCN1CCN(C(=O)c2cc(C(C)(C)C)sc2NC(=O)Nc2cccc(Cl)c2Cl)CCC1=O`, the apparent permeability from apical to basolateral (Papp A→B) in series [1] was 0.39 ×10⁻⁶ cm/s. In series [2], this molecule registered a bioavailability of 33%. Besides, the half-life in series [3] worked out at 5.67 h. Moreover, in series [4], the Papp B→A amounted to 5.3 ×10⁻⁶ cm/s.
